Experimental data from patent publication US20160000080A1, “COMPOSITIONS CONTAINING ISOSORBIDE MONOESTER AND ALIPHATIC VICINAL DIOLS” (CLARIANT INTERNATIONAL LTD., priority 2011, published 2016).
Like-named read-outs stand apart in the source and are kept apart here.

Columns and labels:
[1] = test system: bacteria, fungi and yeasts; conditions: general statement, no test described, cited from earlier work
Enterobacter aerogenes = assay: Minimum inhibitory concentration (MIC) in agar; assay type: cell-based; conditions: Enterobacter aerogenes (B)
Description: (§1) Below, the antimicrobial efficacy of a composition according to the invention consisting of 50% by weight of isorbide caprylate 1 and 50% by weight of ethylhexylglycerin against bacteria, fungi and yeasts is examined (hereinbelow, the composition is referred to as “composition A”). For the tests with bacteria, composition A was diluted with butyl polyglycol and then, at 50° C., added to liquid CASO agar (casein-peptone agar) buffered to pH 7 (+/−0.2) in various concentrations (hereinbelow referred to as compositions B1, B2, etc.). For the tests with fungi and yeasts, composition A was diluted with butyl polyglycol and then added to liquid Sabouraud 4% dextrose agar buffered to pH 5.6 (+/−0.2) in various concentrations (hereinbelow referred to as compositions PH1, PH2, etc.). The compositions B1, B2, etc. and PH1, PH2 etc. were each poured into Petri dishes and each inoculated with identical amounts of bacteria, fungi and yeasts. The minimum inhibitory concentration (MIC) is the concentration at which inhibition of the growth of the bacteria, fungi and yeasts in the compositions B1, B2, etc. and PH1, PH2, etc. occurs.
(§2) The minimum inhibitory concentrations for the pure substances isosorbide caprylate 1 and ethylhexylglycerin were determined analogously.
(§3) The values determined for the minimum inhibitory concentrations “MIC mixture”, stated in Table 1 below, are based on the concentrations of composition A.
(§4) The values determined for the minimum inhibitory concentrations “QA” and “QB”, stated in Table 1 below, have already been corrected for the dilution effect of the butyl polyglycol.
(§5) From the minimum inhibitory concentrations determined, it is then possible to calculate whether a synergistic effect is present or not. Whether a synergistic effect is present is calculated according to F. C. Kull et al., Applied Microbiology 1961, 9, 538 using the formula below: […]
(§6) where • Qa is the minimum inhibitory concentration of isosorbide caprylate 1 in the mixture employed, • QA is the minimum inhibitory concentration of isosorbide caprylate 1, • Qb is the minimum inhibitory concentration of ethylhexylglycerin in the mixture employed and • QB is the minimum inhibitory concentration of ethylhexylglycerin.
(§7) The values for Qa and Qb are determined from the values for the mixtures (“MIC mixture”) by multiplying the minimum inhibitory concentrations determined for Qa with the factor 0.5 and for Qb with the factor 0.5, because of the proportions of the ingredients—50% by weight of isosorbide caprylate 1 and 50% by weight of ethylhexylglycerin—in composition A according to the invention examined.
(§8) If an SE value>1 is obtained, an antagonistic effect is present. If SE=1, the compounds are neutral with respect to one another, and if SE<1, a synergistic effect is present.
(§9) Analogously to the determination of the antimicrobial activity according to the above example B), the antimicrobial activity of a mixture comprising, firstly, 89.6% by weight of isosorbide dicaprylate and 9.4% by weight of isosorbide monocaprylate (remainder: 1% by weight) (hereinbelow referred to as “isosorbide dicaprylate”) and, secondly, pure isosorbide was determined in further test series.

Staphylococcus aureus = assay: Minimum inhibitory concentration (MIC) in agar; assay type: cell-based; conditions: Staphylococcus aureus (B)
Description: as §1, §2, §3, §4, §5, §6, §7, §8, §9

Aspergillus brasiliensis = assay: Minimum inhibitory concentration (MIC) in agar; assay type: cell-based; conditions: Aspergillus brasiliensis (F)
Description: as §1, §2, §3, §4, §5, §6, §7, §8, §9

Pseudomonas aeruginosa = assay: Minimum inhibitory concentration (MIC) in agar; assay type: cell-based; conditions: Pseudomonas aeruginosa (B)
Description: as §1, §2, §3, §4, §5, §6, §7, §8, §9

Aspergillus terreus = assay: Minimum inhibitory concentration (MIC) in agar; assay type: cell-based; conditions: Aspergillus terreus (F)
Description: as §1, §2, §3, §4, §5, §6, §7, §8, §9

Citrobacter freundii = assay: Minimum inhibitory concentration (MIC) in agar; assay type: cell-based; conditions: Citrobacter freundii (B)
Description: as §1, §2, §3, §4, §5, §6, §7, §8, §9

Pseudomonas oleovorans = assay: Minimum inhibitory concentration (MIC) in agar; assay type: cell-based; conditions: Pseudomonas oleovorans (B)
Description: as §1, §2, §3, §4, §5, §6, §7, §8, §9

Penicillium minioluteum = assay: Minimum inhibitory concentration (MIC) in agar; assay type: cell-based; conditions: Penicillium minioluteum (F)
Description: as §1, §2, §3, §4, §5, §6, §7, §8, §9

Proteus vulgaris = assay: Minimum inhibitory concentration (MIC) in agar; assay type: cell-based; conditions: Proteus vulgaris (B)
Description: as §1, §2, §3, §4, §5, §6, §7, §8, §9

Klebsiella pneumoniae = assay: Minimum inhibitory concentration (MIC) in agar; assay type: cell-based; conditions: Klebsiella pneumoniae (B)
Description: as §1, §2, §3, §4, §5, §6, §7, §8, §9

Fusarium solani = assay: Minimum inhibitory concentration (MIC) in agar; assay type: cell-based; conditions: Fusarium solani (F)
Description: as §1, §2, §3, §4, §5, §6, §7, §8, §9

Candida albicans = assay: Minimum inhibitory concentration (MIC) in agar; assay type: cell-based; conditions: Candida albicans (Y)
Description: as §1, §2, §3, §4, §5, §6, §7, §8, §9

Penicillium funicolosium = assay: Minimum inhibitory concentration (MIC) in agar; assay type: cell-based; conditions: Penicillium funicolosium (F)
Description: as §1, §2, §3, §4, §5, §6, §7, §8, §9

Escherichia coli = assay: Minimum inhibitory concentration (MIC) in agar; assay type: cell-based; conditions: Escherichia coli (B)
Description: as §1, §2, §3, §4, §5, §6, §7, §8, §9

[2] = test system: bacteria, fungi and yeasts; assay: Antimicrobial efficacy, overall statements; assay type: cell-based
Description: Below, the antimicrobial efficacy of a composition according to the invention consisting of 50% by weight of isorbide caprylate 1 and 50% by weight of ethylhexylglycerin against bacteria, fungi and yeasts is examined (hereinbelow, the composition is referred to as “composition A”). For the tests with bacteria, composition A was diluted with butyl polyglycol and then, at 50° C., added to liquid CASO agar (casein-peptone agar) buffered to pH 7 (+/−0.2) in various concentrations (hereinbelow referred to as compositions B1, B2, etc.). For the tests with fungi and yeasts, composition A was diluted with butyl polyglycol and then added to liquid Sabouraud 4% dextrose agar buffered to pH 5.6 (+/−0.2) in various concentrations (hereinbelow referred to as compositions PH1, PH2, etc.). […]
as §2, §9

[3] = MIC mixture x factor 0.5 (composition A)
[4] = Sabouraud 4% dextrose agar pH 5.6 (+/-0.2)
[5] = CASO agar pH 7 (+/-0.2), read-out: minimum inhibitory concentration (MIC), meas.
[6] = Sabouraud 4% dextrose agar pH 5.6 (+/-0.2), read-out: minimum inhibitory concentration (MIC), meas.

## CCCCCCCC(=O)O [caprylic acid]
[1]; at a pH of 6 or above
  antimicrobial activity (in words): no antimicrobial activity
[1]
  antimicrobial efficacy (in words): antimicrobially effective

## CCCCC(CC)COCC(O)CO (stereo not shown) [ethylhexylglycerin]
Enterobacter aerogenes; CASO agar pH 7 (+/-0.2)
  minimum inhibitory concentration (MIC), meas.: 2000 ppm
Enterobacter aerogenes; [3]
  minimum inhibitory concentration of the component in the mixture employed (Qa / Qb), calc.: 2500 ppm
Staphylococcus aureus; CASO agar pH 7 (+/-0.2)
  minimum inhibitory concentration (MIC), meas.: 750 ppm
Staphylococcus aureus; [3]
  minimum inhibitory concentration of the component in the mixture employed (Qa / Qb), calc.: 500 ppm
Aspergillus brasiliensis; [3]
  minimum inhibitory concentration of the component in the mixture employed (Qa / Qb), calc.: 375 ppm
Aspergillus brasiliensis; [4]
  minimum inhibitory concentration (MIC), meas.: 1000 ppm
Pseudomonas aeruginosa; CASO agar pH 7 (+/-0.2)
  minimum inhibitory concentration (MIC), meas.: 5000 ppm
Pseudomonas aeruginosa; [3]
  minimum inhibitory concentration of the component in the mixture employed (Qa / Qb), calc.: 2500 ppm
Aspergillus terreus; [3]
  minimum inhibitory concentration of the component in the mixture employed (Qa / Qb), calc.: 250 ppm
Aspergillus terreus; [4]
  minimum inhibitory concentration (MIC), meas.: 1000 ppm
Citrobacter freundii; CASO agar pH 7 (+/-0.2)
  minimum inhibitory concentration (MIC), meas.: 1500 ppm
Citrobacter freundii; [3]
  minimum inhibitory concentration of the component in the mixture employed (Qa / Qb), calc.: 750 ppm
Pseudomonas oleovorans; CASO agar pH 7 (+/-0.2)
  minimum inhibitory concentration (MIC), meas.: 5000 ppm
Pseudomonas oleovorans; [3]
  minimum inhibitory concentration of the component in the mixture employed (Qa / Qb), calc.: 5000 ppm
Penicillium minioluteum; [3]
  minimum inhibitory concentration of the component in the mixture employed (Qa / Qb), calc.: 250 ppm
Penicillium minioluteum; [4]
  minimum inhibitory concentration (MIC), meas.: 750 ppm
Proteus vulgaris; CASO agar pH 7 (+/-0.2)
  minimum inhibitory concentration (MIC), meas.: 1500 ppm
Proteus vulgaris; [3]
  minimum inhibitory concentration of the component in the mixture employed (Qa / Qb), calc.: 750 ppm
Klebsiella pneumoniae; CASO agar pH 7 (+/-0.2)
  minimum inhibitory concentration (MIC), meas.: 2000 ppm
Klebsiella pneumoniae; [3]
  minimum inhibitory concentration of the component in the mixture employed (Qa / Qb), calc.: 1000 ppm
Fusarium solani; [3]
  minimum inhibitory concentration of the component in the mixture employed (Qa / Qb), calc.: 125 ppm
Fusarium solani; [4]
  minimum inhibitory concentration (MIC), meas.: 500 ppm
Candida albicans; [3]
  minimum inhibitory concentration of the component in the mixture employed (Qa / Qb), calc.: 375 ppm
Candida albicans; [4]
  minimum inhibitory concentration (MIC), meas.: 1000 ppm
Penicillium funicolosium; [3]
  minimum inhibitory concentration of the component in the mixture employed (Qa / Qb), calc.: 125 ppm
Penicillium funicolosium; [4]
  minimum inhibitory concentration (MIC), meas.: 500 ppm
Escherichia coli; CASO agar pH 7 (+/-0.2)
  minimum inhibitory concentration (MIC), meas.: 1000 ppm
Escherichia coli; [3]
  minimum inhibitory concentration of the component in the mixture employed (Qa / Qb), calc.: 750 ppm

## O[C@@H]1CO[C@H]2[C@@H]1OC[C@@H]2O [isosorbide]
Enterobacter aerogenes; Klebsiella aerogenes, CASO agar pH 7 (+/-0.2), read-out: minimum inhibitory concentration (MIC), meas.
  MIC: 10000 µg/mL
Staphylococcus aureus; [5]
  MIC: 10000 µg/mL
Aspergillus brasiliensis; [6]
  MIC: 10000 µg/mL
Pseudomonas aeruginosa; [5]
  MIC: 10000 µg/mL
Aspergillus terreus; [6]
  MIC: 10000 µg/mL
Citrobacter freundii; [5]
  MIC: 10000 µg/mL
Pseudomonas oleovorans; Ectopseudomonas oleovorans, CASO agar pH 7 (+/-0.2), read-out: minimum inhibitory concentration (MIC), meas.
  MIC: 10000 µg/mL
Penicillium minioluteum; Talaromyces minioluteus, Sabouraud 4% dextrose agar pH 5.6 (+/-0.2), read-out: minimum inhibitory concentration (MIC), meas.
  MIC: 10000 µg/mL
Proteus vulgaris; [5]
  MIC: 10000 µg/mL
Klebsiella pneumoniae; [5]
  MIC: 10000 µg/mL
Fusarium solani; [6]
  MIC: 10000 µg/mL
Candida albicans; [6]
  MIC: 10000 µg/mL
Penicillium funicolosium; [6]
  MIC: 10000 µg/mL
Escherichia coli; [5]
  MIC: 10000 µg/mL
[2]; summary of the results of Table 2
  antimicrobial activity (in words): neither isosorbide nor isosorbide dicaprylate are antimicrobially active

## isosorbide monocaprylate
[2]; concluded from the MICs of isosorbide caprylate 1 and of its other constituents
  antimicrobial activity (in words): significant antimicrobial activity
